In series [1] the test system is brain, liver, heart, kidney, eye, and spleen. The experiment in a line: Histologic analysis of organs for treatment-related pathologies. From the text:
(§1) After the hearts all other relevant inner organs (e.g., lung, liver, spleen, kidneys, brain, and eyes) were removed, rinsed with ice-cold PBS, weighed, sectioned, and fixed for further histologic analysis.
Supplementary file pone.0117589.s003.tif: S3 Fig Histologic analysis of various organs (therapy-study, mono-treatment). Representative H&E-stained 2μm cross-sections from various organs analyzed for treatment-related pathologies. Panels (from top to bottom) show organs analyzed from immunised anti-β1EC2-positive untreated, β1EC2-CP-treated, or bisoprolol-treated rats. […] (TIF) Click here for additional data file.

Series [2] concerns anti-β1EC2-induced heart failure (β1EC2/GST-FP-immunised rats). The experiment in a line: Relative organ wet weights and body weight, prevention-study. As to conditions: month 16, mean ±SEM. As for the experimental part: In brief, n = 76 two months old Lewis/CrlBR rats were either s.c. immunised with 50 μg β1EC2/GST-FP, or n = 38 rats were control-injected with 0.9% NaCl (t = 0). To maintain high anti-β1EC2-titers, all immunised rats were boosted with β1EC2/GST-FP (or 0.9% NaCl) every month over 20 months as previously described. Application of the different linear or cyclic β1-AR peptides (corresponding to the primary AA-sequence of either the first (β1EC1) or the 2nd extra-cellular β1-AR loop (β1EC2)) or the β1-receptor blocker bisoprolol was initiated either 6 weeks after the 1st immunisation (i.e. 15 days after the 1st boost, prevention-study), or 8.5 months after the 1st immunisation (therapy-study).
as §1

The test system of series [3] is anti-β1EC2-induced β1-AR/cAMP signaling in HEKβ1-cells. As to the kind of experiment: FRET cAMP assay (Epac1-camps), blockade of anti-β1EC2-induced signals. As to conditions: HEKβ1-cells with Epac1-camps FRET-sensor; IgG pre-incubated with peptide (Fig. 1F). It counts as cell-based, human. The protocol:
The effects of anti-β1EC2 on β1AR-mediated intracellular cAMP-production were assessed by measuring fluorescence resonance energy transfer (FRET) in HEKβ1-cells transiently transfected with a FRET-sensor for cAMP, Epac1-camps. The sensor consists of the cAMP-binding protein Epac1 flanked by enhanced cyan or yellow fluorescent protein. […] IgG-preparations were added to the cells at 0.13 μg/μl protein concentration; 2μM (-)isoproterenol (Sigma) was used as a reference to determine the maximal cAMP-response. To test the blocking-efficacy of β1EC2-CP on anti-β1EC2-induced adrenergic signaling, the different IgG-preparations were pre-incubated with β1EC2-CP (20 μg/μl) for 6 h at 4 °C; for pharmacological blockade of anti-β1EC2-induced signals we utilised 5.0μM bisoprolol.
(D) Immunostaining experiments with rat anti- β1EC2 (1:100) using HEK-cells stably expressing β1-ARs (HEK β1) or not (wild type; HEK WT). IgG was prepared from anti- β1EC2-positive rats or 0.9% NaCl-injected control rats. Amino-terminal β1AR-specific rabbit anti-bodies (1:250) served as positive controls. […] HEK β1-cells were transfected with the cAMP-sensor Epac1-camps, which reacts to cAMP-binding with a reduction in fluorescence resonance energy transfer (FRET) between its fluorophores cyan (CFP) and yellow fluorescent protein (YFP). […] Representative FRET-ratio traces of 1/5 experiments are shown. Values are given in % of maximal cAMP-response achieved with 0.3μM (-)isoproterenol (Iso).

The mark [4] stands for this setting: immunised anti-β1EC2-positive rats, from 6 weeks after 1st immunisation EC2-CP 1.0 mg/kg i.v. every 4 weeks or bisoprolol 15 mg/kg/day orally over 12 months.
Where [5] appears, read: non-immunised 0.9% NaCl-injected rats, EC2-CP 1.0 mg/kg i.v. every 4 weeks or bisoprolol 15 mg/kg/day orally over 12 months.

“Also recorded” adds a separate entry of the source. Peptide text beside a SMILES is read from it.

The text below walks through data of PMC4336331, “Novel Receptor-Derived Cyclopeptides to Treat Heart Failure Caused by Anti-β1-Adrenoceptor Antibodies in a Human-Analogous Rat Model” (PLoS ONE, 2015).

Regarding `CC(C)[C@@H]1NC(=O)[C@H](Cc2ccccc2)NC(=O)[C@H](CC(=O)O)NC(=O)[C@H](CS)NC(=O)[C@H](CS)NC(=O)[C@H](CCCCN)NC(=O)[C@@H]2CCCN2C(=O)[C@H](CC(=O)O)NC(=O)[C@H](CC(N)=O)NC(=O)[C@H](Cc2ccc(O)cc2)NC(=O)[C@H](CS)NC(=O)[C@H](CCCNC(=N)N)NC(=O)[C@H](CCCNC(=N)N)NC(=O)[C@H](C)NC(=O)[C@H](CCC(=O)O)NC(=O)[C@H](CC(=O)O)NC(=O)[C@H](CO)NC(=O)[C@H](CCC(=O)O)NC(=O)[C@H](C)NC(=O)[C@H](CCCNC(=N)N)NC(=O)[C@H](C)NC(=O)[C@H](CCC(N)=O)NC(=O)CNC(=O)[C@H](CCCNC(=N)N)NC(=O)[C@H](CC(N)=O)NC(=O)[C@H]([C@@H](C)O)NC1=O` [β1EC2-CP] (cyclo(AESDEARRCYNDPKCCDFVTNRGQAR)), the “treatment-related organ pathologies / organ-toxicity, in words” value in series [1] (therapy-study, after 12 months of treatment, H&E-stained sections (S3 Fig.)) was “no β1EC2-CP-related pathologies were noted; also recorded: Neither treatment strategy caused detectable organ-specific toxicity”. Besides, in series [2] (setting [4]), the “Heart, relative (wet) weight” value amounted to 2.46 ± 0.05 mg/g; the “Kidney L, relative (wet) weight” value came out at 2.71 ± 0.08 mg/g; the “Kidney R, relative (wet) weight” value was found to be 2.79 ± 0.06 mg/g; the “Liver, relative (wet) weight” value was found to be 23.59 ± 0.46 mg/g. For the same compound, in series [2] (setting [4]), the “Lung, relative (wet) weight” value stood at 2.74 ± 0.14 mg/g; the “Spleen, relative (wet) weight” value was determined as 1.48 ± 0.05 mg/g; the “Weight (body weight)” value came out at 543 ± 24 g. In series [2] (setting [5]), the “Heart, relative (wet) weight” value stood at 2.50 ± 0.06 mg/g; the “Kidney L, relative (wet) weight” value is 2.62 ± 0.08 mg/g; the “Kidney R, relative (wet) weight” value was 2.79 ± 0.01 mg/g; the “Liver, relative (wet) weight” value stood at 22.51 ± 0.20 mg/g. In addition, in series [2] (setting [5]), the “Lung, relative (wet) weight” value is 2.77 ± 0.10 mg/g; the “Spleen, relative (wet) weight” value was found to be 1.58 ± 0.15 mg/g; the “Weight (body weight)” value came out at 553 ± 11 g. Also, the “blockade of anti-β1EC2-induced cAMP-signals, in words” value in series [3] was “inhibited”.
Take `CC(C)NCC(O)COc1ccc(COCCOC(C)C)cc1` (centres unmarked) [bisoprolol, reference compound]: in series [1] (rat, in vivo), the “treatment-related organ pathologies / organ-toxicity, in words” value is listed as “Neither treatment strategy caused detectable organ-specific toxicity”. Also, in series [2] (setting [4]), the “Heart, relative (wet) weight” value was 2.55 ± 0.06 mg/g; the “Kidney L, relative (wet) weight” value was 2.63 ± 0.04 mg/g; the “Kidney R, relative (wet) weight” value was found to be 2.73 ± 0.07 mg/g; the “Liver, relative (wet) weight” value is 22.63 ± 0.46 mg/g. In series [2] (setting [4]), the “Lung, relative (wet) weight” value is 2.74 ± 0.07 mg/g; the “Spleen, relative (wet) weight” value is 1.74 ± 0.05 mg/g; the “Weight (body weight)” value came out at 533 ± 27 g. Besides, in series [2] (setting [5]), the “Heart, relative (wet) weight” value came out at 2.50 ± 0.06 mg/g; the “Kidney L, relative (wet) weight” value worked out at 2.79 ± 0.05 mg/g; the “Kidney R, relative (wet) weight” value was determined as 2.90 ± 0.07 mg/g; the “Liver, relative (wet) weight” value came out at 22.33 ± 0.78 mg/g. For the same compound, in series [2] (setting [5]), the “Lung, relative (wet) weight” value amounted to 2.66 ± 0.22 mg/g; the “Spleen, relative (wet) weight” value is 1.79 ± 0.05 mg/g; the “Weight (body weight)” value was found to be 546 ± 8 g.
As to `CC(C)[C@H](NC(=O)[C@H](Cc1ccccc1)NC(=O)[C@H](CC(=O)O)NC(=O)[C@H](CS)NC(=O)[C@H](CS)NC(=O)[C@H](CCCCN)NC(=O)[C@@H]1CCCN1C(=O)[C@H](CC(=O)O)NC(=O)[C@H](CC(N)=O)NC(=O)[C@H](Cc1ccc(O)cc1)NC(=O)[C@H](CS)NC(=O)[C@H](CCCNC(=N)N)NC(=O)[C@H](CCCNC(=N)N)NC(=O)[C@H](C)NC(=O)[C@H](CCC(=O)O)NC(=O)[C@H](CC(=O)O)NC(=O)[C@H](CO)NC(=O)[C@H](CCC(=O)O)NC(=O)[C@H](C)NC(=O)[C@H](CCCNC(=N)N)NC(=O)[C@H](C)N)C(=O)N[C@H](C(=O)N[C@@H](CC(N)=O)C(=O)N[C@@H](CCCNC(=N)N)C(=O)NCC(N)=O)[C@@H](C)O` [β1EC2-Lin] (H-ARAESDEARRCYNDPKCCDFVTNRG-NH2; N-terminus and C-terminus assumed), in series [3], the “blockade of anti-β1EC2-induced cAMP-signals, in words” value is on record as “inhibited”.
